{
  "source": "patent US20250281499A1",
  "about": "“FUSED AMINO PYRIMIDINE COMPOUNDS FOR TREATMENT OF NEUROPATHIC AND NEURO-INFLAMMATORY PAIN” (Ovid Therapeutics Inc., priority 2024, published 2025)",
  "key": {"NKCC1": {"biological_target": "T1, NKCC1 (Homo sapiens, UniProt P55011)", "T1 construct": "expressed in transfected cells; host or cells: HEK-293", "T1 sequence (P55011 1-1212)": "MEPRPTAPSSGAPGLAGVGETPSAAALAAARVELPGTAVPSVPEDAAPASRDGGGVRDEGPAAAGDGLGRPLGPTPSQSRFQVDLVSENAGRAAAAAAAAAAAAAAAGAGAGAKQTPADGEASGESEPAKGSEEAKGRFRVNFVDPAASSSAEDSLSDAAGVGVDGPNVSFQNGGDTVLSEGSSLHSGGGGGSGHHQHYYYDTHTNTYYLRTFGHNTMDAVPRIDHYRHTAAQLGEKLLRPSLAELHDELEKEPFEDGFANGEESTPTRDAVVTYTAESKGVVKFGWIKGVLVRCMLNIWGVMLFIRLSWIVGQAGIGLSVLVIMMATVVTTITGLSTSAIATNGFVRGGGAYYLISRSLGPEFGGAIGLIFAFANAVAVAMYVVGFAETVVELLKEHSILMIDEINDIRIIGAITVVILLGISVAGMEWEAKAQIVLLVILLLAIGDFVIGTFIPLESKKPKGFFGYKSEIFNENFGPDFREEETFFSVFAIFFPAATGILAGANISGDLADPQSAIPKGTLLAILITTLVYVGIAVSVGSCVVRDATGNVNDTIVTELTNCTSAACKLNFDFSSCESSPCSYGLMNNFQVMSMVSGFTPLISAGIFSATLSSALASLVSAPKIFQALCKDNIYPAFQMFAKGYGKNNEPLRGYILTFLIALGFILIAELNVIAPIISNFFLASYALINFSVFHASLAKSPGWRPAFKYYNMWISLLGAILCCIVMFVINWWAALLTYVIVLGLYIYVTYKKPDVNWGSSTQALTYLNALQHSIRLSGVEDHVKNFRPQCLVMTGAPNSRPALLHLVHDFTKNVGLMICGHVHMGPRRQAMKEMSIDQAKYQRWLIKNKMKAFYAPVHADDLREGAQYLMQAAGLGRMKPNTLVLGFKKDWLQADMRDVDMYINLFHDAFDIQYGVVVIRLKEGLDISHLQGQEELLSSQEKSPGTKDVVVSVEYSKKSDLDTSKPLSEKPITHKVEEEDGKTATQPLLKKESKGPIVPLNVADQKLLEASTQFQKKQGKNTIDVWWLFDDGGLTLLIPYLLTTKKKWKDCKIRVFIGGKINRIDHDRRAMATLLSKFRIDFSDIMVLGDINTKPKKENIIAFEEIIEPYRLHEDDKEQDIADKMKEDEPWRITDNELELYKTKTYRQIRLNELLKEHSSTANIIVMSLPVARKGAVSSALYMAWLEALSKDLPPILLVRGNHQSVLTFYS", "assay": "Tl+ flux assay, HEK-293 cells expressing NKCC1", "assay_type": "cell-based", "details": "read-out: concentration at which effects on NKCC1 were seen (EC50, FIG. 1G)", "description": "(§1) FLIPR TI Flux assay. HEK-293 cells were washed with HBSS, and then incubated with loading buffer containing TI sensitive fluorescent dye (https://www.moleculardevices.com), 20 μM bumetanide 20 μM ouabain and 2.5 mM probenecid for 1 h at room temperature (RT) under control conditions or with drugs in the dark using a FlexStation 3 microplate reader (Molecular Devices) and imaged […] for 30 min. Stimulus buffer was added containing 5 mM K^+/0.5 mM Tl^+ and cells were imaged every 1.5 over a 190 second time course The initial rate Tl^+ uptake (Relative Fluorescence Units (RFU) per second) was determined following addition of the stimulus buffer as outlined previously (Conway et al., 2017, supra) (Lee et al., 2022, supra).\n(§2) Several studies have shown that the activity and plasma membrane accumulation of KCC2 is potentiated via phosphorylation of S940, a process mediated by the activity of protein kinase C and protein phosphatase 1 (Lee et al, 2011, supra; Lee et al., J Biol Chem 282, 29777-29784 (2007); Moore et al., Proc. Natl. Acad. Sci. U.S.A 115, 10166-10171 (2018); Moore et al., Trends Neurosci. 40, 555-571 (2017); Silayeva et al., Proc. Natl. Acad. Sci. U.S.A. 112, 3523-3528 (2015)). […] Compared to KCC2, effects on KCC3, KCC4, and NKCC1 were only seen at concentrations more than 35-fold that of KCC2 (>100 μM) (FIG. 1G)."}, "KCC2-S940A": {"biological_target": "T2, KCC2-S940A (Homo sapiens, UniProt Q9H2X9, S963A)", "T2 construct": "expressed in transfected cells; host or cells: HEK-293", "T2 sequence (Q9H2X9 1-1116 isoform Q9H2X9-2 S940A)": "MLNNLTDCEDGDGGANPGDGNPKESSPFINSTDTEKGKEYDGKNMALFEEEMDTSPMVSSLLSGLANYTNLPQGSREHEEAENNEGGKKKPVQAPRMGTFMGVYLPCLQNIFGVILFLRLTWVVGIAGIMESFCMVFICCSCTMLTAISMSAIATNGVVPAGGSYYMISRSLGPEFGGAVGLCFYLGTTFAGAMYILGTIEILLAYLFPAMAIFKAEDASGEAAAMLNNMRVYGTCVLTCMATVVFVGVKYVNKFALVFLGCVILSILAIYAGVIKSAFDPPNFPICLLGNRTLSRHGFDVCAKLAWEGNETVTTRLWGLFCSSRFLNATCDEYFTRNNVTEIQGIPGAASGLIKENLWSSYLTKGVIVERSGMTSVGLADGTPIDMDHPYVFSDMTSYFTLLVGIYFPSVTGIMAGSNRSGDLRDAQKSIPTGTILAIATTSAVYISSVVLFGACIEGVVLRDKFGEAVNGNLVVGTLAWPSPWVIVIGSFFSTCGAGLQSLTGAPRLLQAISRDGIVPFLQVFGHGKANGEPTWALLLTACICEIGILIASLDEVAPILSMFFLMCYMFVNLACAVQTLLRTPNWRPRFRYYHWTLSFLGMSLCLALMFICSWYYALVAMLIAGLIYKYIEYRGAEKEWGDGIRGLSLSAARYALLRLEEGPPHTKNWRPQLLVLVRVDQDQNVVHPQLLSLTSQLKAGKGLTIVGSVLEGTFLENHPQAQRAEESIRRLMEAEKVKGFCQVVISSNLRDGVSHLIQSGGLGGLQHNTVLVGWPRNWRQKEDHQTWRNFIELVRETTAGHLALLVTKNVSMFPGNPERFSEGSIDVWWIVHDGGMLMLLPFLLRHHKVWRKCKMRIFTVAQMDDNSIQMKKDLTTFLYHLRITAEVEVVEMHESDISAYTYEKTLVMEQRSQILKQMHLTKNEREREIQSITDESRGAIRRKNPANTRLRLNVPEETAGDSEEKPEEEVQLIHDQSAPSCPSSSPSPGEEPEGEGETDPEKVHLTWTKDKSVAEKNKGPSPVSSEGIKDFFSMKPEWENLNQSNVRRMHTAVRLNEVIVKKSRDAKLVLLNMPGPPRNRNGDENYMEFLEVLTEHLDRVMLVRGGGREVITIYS", "assay": "Tl+ flux assay, KCC2-S940A construct in HEK-293 cells", "assay_type": "cell-based", "description": "as §1, §2"}},
  "data": [
    {"smiles": "C[C@@H]1CN(c2nc3c(c(Nc4ccc(C5CCCCC5)cc4)n2)COC3)CCO1", "note": "[Compound A, (R)—N-(4-cyclohexylphenyl)-2-(2-methylmorpholino)-5,7-dihydrofuro[3,4-d]pyrimidin-4-amine]", "values": [
      {"measurement": "EC50", "setting": "NKCC1", "result": "> 100", "unit": "µM"},
      {"measurement": "activity of KCC2-S940A construct", "setting": "KCC2-S940A", "result": "increased the activity"}
    ]}
  ]
}
